Test results published in patent publication US9006209B2, “Uracyl spirooxetane nucleoside phosphoramidates” (Janssen Products, LP, priority 2010, dated 2015).

Assays:
HIV = details: described in Org. Biomol. Chem., 2003, 3514-3526; cited from earlier work
[1] = Cytotoxicity in Huh-7 cells; assay type: cell-based; details: human
Description: (§1) The in vitro antiviral activity against HCV of the compound of formula I was tested in a cellular HCV replicon system based on Lohmann et al. (1999) Science 285:110-113, with the further modifications described by Krieger et al. (2001) Journal of Virology 75: 4614-4624 (incorporated herein by reference), which is further exemplified in the examples section. This model, while not a complete infection model for HCV, is widely accepted as the most robust and efficient model of autonomous HCV RNA replication currently available. It will be appreciated that it is important to distinguish between compounds that specifically interfere with HCV functions from those that exert cytotoxic or cytostatic effects in the HCV replicon model, and as a consequence cause a decrease in HCV RNA or linked reporter enzyme concentration. Assays are known in the field for the evaluation of cellular cytotoxicity based for example on the activity of mitochondrial enzymes using fluorogenic redox dyes such as resazurin. Furthermore, cellular counter screens exist for the evaluation of non-selective inhibition of linked reporter gene activity, such as firefly luciferase. […]

[2] = test system: HCV replicon (HCV type 1b NS3-NS5B) in Huh-7 luc/neo cells; experiment: HCV replicon assay (Huh-Luc, luciferase readout); assay type: cell-based, HCV genotype 1b; details: Hepatitis C virus, Huh-7, 72 h, three days incubation, luciferase activity
Description: as §1, with “concentration.” for “concentration. Assays are known in the field for the evaluation of cellular cytotoxicity based for example on the activity of mitochondrial enzymes using fluorogenic redox dyes such as resazurin. Furthermore, cellular counter screens exist for the evaluation of non-selective inhibition of linked reporter gene activity, such as firefly luciferase.”
The replicon cells were plated in 384-well plates in the presence of the test and control compounds which were added in various concentrations. Following an incubation of three days, HCV replication was measured by assaying luciferase activity (using standard luciferase assay substrates and reagents and a Perkin Elmer ViewLux™ ultraHTS microplate imager). […] The inhibitory activity of the compound on luciferase activity was monitored on the Huh-Luc cells, enabling a dose-response curve for the test compound. […]

For `O=c1ccn([C@@H]2O[C@H](CO)[C@@H](O)[C@]23CCO3)c(=O)[nH]1` [1-(2-O,2-C-ethano-β-D-ribofuranosyl)uracil], the “activity against HIV” value (HIV) is given as “no activity was found”.
In the case of `Cc1cn([C@@H]2O[C@H](CO)[C@@H](O)[C@]23CCO3)c(=O)[nH]c1=O` [1-(2-O,2-C-ethano-β-D-ribofuranosyl)thymine], the “activity against HIV” value (HIV) is given as “no activity was found”.
With `CCCCOC(=O)[C@H](C)N[P@@](=O)(OC[C@H]1O[C@@H](n2ccc(=O)[nH]c2=O)[C@@]2(CCO2)[C@@H]1O)Oc1ccccc1` [P1, butyl N-[(R)-{[(4R,5R,7R,8R)-5-(2,4-dioxo-3,4-dihydro-pyrimidin-1(2H)-yl)-8-hydroxy-1,6-dioxaspiro[3.4]oct-7-yl]methoxy}(phenoxy)-phosphoryl]-L-alaninate] the CC50 [1] was > 98 µM and the EC50 [2] was 4.47 µM.
